Patent publication US11279737B2, “Antimicrobial peptide variants and uses thereof” (ANTINBIO, INC., priority 2019, dated 2022)
≈ marks a conversion by molar mass, not a printed value. Where a SMILES comes first, the peptide text is derived from it. Bridges are numbered along the chain shown (N, C = ends).

What was measured:
[1] = tested on: S. epidermidis ATCC 14990; conditions: for Minimal inhibitory concentration (MIC): ATCC 14990
[2] = tested on: S. aureus MRSA ATCC 43300; conditions: for Minimal inhibitory concentration (MIC): ATCC 43300; for antimicrobial activity compared to wild type hegrisin (in words): S. aureus MRSA ATCC 43300
S. aureus ATCC 6538 [3] = assay: inhibition zone assay; conditions: 10 μg peptide per hole, 37° C., 16-18 hours
S. aureus ATCC 6538 [4] = conditions: for Minimal inhibitory concentration (MIC): ATCC 6538; for antimicrobial activity compared to wild type hegrisin (in words): S. aureus ATCC 6538, lower MIC values
human erythrocytes = assay: hemolytic assay; assay type: cell-based; conditions: FIG. 2; for cell lysis (hemolysis) of human erythrocytes: peptide 0.5-500 μg/ml, 37° C., 60 minutes
Description: For the hemolysis assays, human erythrocytes were obtained from healthy donors, washed 3 times using sterilized PBS and re-suspended to a concentration of 2% (v/v) with PBS. The hegrisin, HCN2016-01 peptide, and plectasin (control) were diluted to concentrations of 500, 250, 125, 62.5, 32, 16, 8, 4, 2, 1, and 0.5 μg/ml. A 100 μL solution of each peptide and a 100 μL suspension of red blood cells were mixed and added to the wells of a 96-well plate. PBS was used as negative control and Triton X-100 was used as a positive control.
The samples were incubated at 37° C. for 60 minutes and gently stirred during the incubation period. Then, the samples were centrifuged at 2000 rpm for 5 minutes. A total of 100 μL of the supernatant in each well was transferred to a new 96-well plate and absorbance was measured at 490 nm using a microplate reader (Molecular Devices, USA).
For hemolysis assays, human erythrocytes were obtained from healthy donors, washed 3 times using sterilized PBS, and re-suspended to a concentration of 2% (v/v) with PBS. The HCN2016-01 peptide (SEQ ID NO: 2) and plectasin (control) were diluted to concentrations of 500; 250; 125; 62.5; 32; 16; 8; 4; 2; 1; and 0.5 μg/ml. A 100 μL of each peptide solution was mixed with a 100 μL solution of a red blood cell suspension and added to separate wells of a 96-well plate. PBS was used as negative control and Triton X-100 was used as a positive control. The samples were incubated at 37° C. for 60 minutes and gently stirred during the incubation period. The samples were then centrifuged at 2000 rpm for 5 minutes. A total of 100 μL of the supernatant in each well was transferred to a new 96-well plate and absorbance was measured at 490 nm using a microplate reader (Molecular Devices, USA).

| Molecule | Minimal inhibitory concentration (MIC) [1] | Minimal inhibitory concentration (MIC) [2] | antimicrobial activity compared to wild type hegrisin (in words) [2] | Activity (antimicrobial activity relative to unmodified hegrisin, zones of growth inhibition) (S. aureus ATCC 6538 [3]) | Minimal inhibitory concentration (MIC) (S. aureus ATCC 6538 [4]) | antimicrobial activity compared to wild type hegrisin (in words) (S. aureus ATCC 6538 [4]) | cell lysis (hemolysis) of human erythrocytes (human erythrocytes) | change of cell lysis with rising concentration (human erythrocytes; concentration increased from 62.5 μg/ml to 500 μg/ml) | antimicrobial activity compared to wild type hegrisin (in words) ([1]; S. epidermidis ATCC 14990) |
| --- | --- | --- | --- | --- | --- | --- | --- | --- | --- |
| CC[C@H](C)[C@@H]1NC(=O)[C@H](CO)NC(=O)[C@H](CCCCN)NC(=O)[C@@H]2CSSC[C@@H](C(=O)N[C@@H](Cc3ccc(O)cc3)C(=O)O)NC(=O)[C@H](CCCCN)NC(=O)[C@@H]3CSSC[C@H](NC(=O)[C@@H]4CCCN4C(=O)[C@H](CCCCN)NC(=O)[C@H](CC(=O)O)NC(=O)[C@H](CC(N)=O)NC(=O)CNC(=O)CNC(=O)[C@H](Cc4ccccc4)NC(=O)[C@H]([C@@H](C)CC)NC(=O)[C@H]([C@@H](C)O)NC(=O)[C@@H](NC(=O)CNC(=O)[C@H](Cc4ccccc4)NC(=O)CN)CSSC[C@H](NC(=O)[C@H](Cc4ccc(O)cc4)NC(=O)CNC(=O)CNC(=O)[C@H](CCCCN)NC(=O)[C@H](Cc4ccc(O)cc4)NC(=O)CNC(=O)[C@H](CCCCN)NC1=O)C(=O)N[C@@H](CCCCN)C(=O)N[C@@H](C(C)C)C(=O)NCC(=O)NCC(=O)N[C@@H](C(C)C)C(=O)N3)C(=O)N[C@@H](Cc1c[nH]cn1)C(=O)N[C@@H](CCCNC(=N)N)C(=O)N[C@@H](Cc1c[nH]cn1)C(=O)N2 [HCN2016-03] (H-GFGCTIFGGNDKPCHRHCKSIKGYKGGYCKVGGVCKCY-OH; disulfide 4-29, 14-35, 18-37 (inferred); N-terminus and C-terminus assumed) | 1.30 µg/mL (≈ 0.32 µM) | 0.81 µg/mL (≈ 0.199 µM) | improved antimicrobial activity | 2 | 1.33 µg/mL (≈ 0.327 µM) | improved antimicrobial activity |  |  |  |
| CC[C@H](C)[C@@H]1NC(=O)[C@H](CO)NC(=O)[C@H](CCCCN)NC(=O)[C@@H]2CSSC[C@@H](C(=O)N[C@@H](Cc3ccc(O)cc3)C(=O)O)NC(=O)[C@H](CCCCN)NC(=O)[C@@H]3CSSC[C@H](NC(=O)[C@@H]4CCCN4C(=O)[C@H](CCCCN)NC(=O)[C@H](CC(=O)O)NC(=O)[C@H](CC(N)=O)NC(=O)CNC(=O)CNC(=O)[C@H](Cc4c[nH]c5ccccc45)NC(=O)[C@H]([C@@H](C)CC)NC(=O)[C@H]([C@@H](C)O)NC(=O)[C@@H](NC(=O)CNC(=O)[C@H](Cc4ccccc4)NC(=O)CN)CSSC[C@H](NC(=O)[C@H](Cc4ccc(O)cc4)NC(=O)CNC(=O)CNC(=O)[C@H](CCCCN)NC(=O)[C@H](Cc4ccc(O)cc4)NC(=O)CNC(=O)[C@H](CCCCN)NC1=O)C(=O)N[C@@H](CCCCN)C(=O)N[C@@H](C(C)C)C(=O)NCC(=O)NCC(=O)N[C@@H](C(C)C)C(=O)N3)C(=O)N[C@@H](Cc1c[nH]cn1)C(=O)N[C@@H](CCCNC(=N)N)C(=O)N[C@@H](Cc1c[nH]cn1)C(=O)N2 [Hegrisin, reference compound] (H-GFGCTIWGGNDKPCHRHCKSIKGYKGGYCKVGGVCKCY-OH; disulfide 4-29, 14-35, 18-37; N-terminus and C-terminus assumed) | 0.38 µg/mL (≈ 0.0926 µM) | 1.34 µg/mL (≈ 0.326 µM) |  | 1 | 1.67 µg/mL (≈ 0.407 µM) |  | no significant lysis |  |  |
| plectasin: defensin antimicrobial peptide isolated from the mushroom Pseudoplectania nigrella; control in the hemolysis assay (GFGCNGPWDEDDMQCHNHCKSIKGYKGGYCAKGGFVCKCY; PLECTASIN) |  |  |  |  |  |  | lysis at nearly all concentrations | increased significantly |  |
| CC[C@H](C)[C@@H]1NC(=O)CNC(=O)CNC(=O)[C@H](Cc2ccccc2)NC(=O)[C@H](CCCCN)NC(=O)[C@@H]2CSSC[C@H](NC(=O)CNC(=O)[C@H](Cc3c[nH]c4ccccc34)NC(=O)CN)C(=O)NCC(=O)N[C@@H](Cc3ccccc3)C(=O)N[C@@H](Cc3ccccc3)C(=O)NCC(=O)NCC(=O)N[C@@H](CC(N)=O)C(=O)N[C@@H](CC(=O)O)C(=O)N[C@@H](CCC(=O)O)C(=O)N3CCC[C@H]3C(=O)N[C@H]3CSSC[C@H](NC1=O)C(=O)N[C@@H](CCCCN)C(=O)N[C@H](C(=O)N[C@@H](Cc1ccc(O)cc1)C(=O)O)CSSC[C@H](NC(=O)[C@H](Cc1c[nH]cn1)NC(=O)[C@H](CCC(N)=O)NC(=O)[C@H](Cc1c[nH]cn1)NC3=O)C(=O)N[C@@H](CCCCN)C(=O)N[C@@H](CO)C(=O)N[C@@H]([C@@H](C)CC)C(=O)N[C@@H](CCCNC(=N)N)C(=O)NCC(=O)N[C@@H](Cc1ccc(O)cc1)C(=O)N[C@@H](CCCNC(=N)N)C(=O)NCC(=O)NCC(=O)N[C@@H](Cc1ccc(O)cc1)C(=O)N2 [HCN2016-05] (H-GWGCGFFGGNDEPCHQHCKSIRGYRGGYCKFGGICKCY-OH; disulfide 4-29, 14-35, 18-37 (inferred); N-terminus and C-terminus assumed) | 2.80 µg/mL (≈ 0.669 µM) | 2.88 µg/mL (≈ 0.688 µM) |  | 2 | 1.44 µg/mL (≈ 0.344 µM) | improved antimicrobial activity |  |  |  |
| CC[C@H](C)[C@@H]1NC(=O)CNC(=O)CNC(=O)[C@H](Cc2ccccc2)NC(=O)[C@H](CCCCN)NC(=O)[C@@H]2CSSC[C@H](NC(=O)[C@H](CO)NC(=O)[C@H](Cc3c[nH]c4ccccc34)NC(=O)CN)C(=O)N[C@@H](CC(N)=O)C(=O)N[C@@H]([C@@H](C)CC)C(=O)N[C@@H](Cc3c[nH]c4ccccc34)C(=O)NCC(=O)NCC(=O)N[C@@H](CC(N)=O)C(=O)N[C@@H](CC(=O)O)C(=O)N[C@@H](CCC(=O)O)C(=O)N3CCC[C@H]3C(=O)N[C@H]3CSSC[C@H](NC1=O)C(=O)N[C@@H](CCCCN)C(=O)N[C@H](C(=O)N[C@@H](Cc1ccc(O)cc1)C(=O)O)CSSC[C@H](NC(=O)[C@H](Cc1c[nH]cn1)NC(=O)[C@H](CCC(N)=O)NC(=O)[C@H](Cc1c[nH]cn1)NC3=O)C(=O)N[C@@H](CCCCN)C(=O)N[C@@H](CO)C(=O)N[C@@H]([C@@H](C)CC)C(=O)N[C@@H](CCCNC(=N)N)C(=O)NCC(=O)N[C@@H](Cc1ccc(O)cc1)C(=O)N[C@@H](CCCNC(=N)N)C(=O)NCC(=O)NCC(=O)N[C@@H](Cc1ccc(O)cc1)C(=O)N2 [HCN2016-02] (H-GWSCNIWGGNDEPCHQHCKSIRGYRGGYCKFGGICKCY-OH; disulfide 4-29, 14-35, 18-37 (inferred); N-terminus and C-terminus assumed) | 1.40 µg/mL (≈ 0.327 µM) | 2.80 µg/mL (≈ 0.654 µM) |  | 2 | 1.40 µg/mL (≈ 0.327 µM) | improved antimicrobial activity |  |  |  |
| CC[C@H](C)[C@@H]1NC(=O)CNC(=O)CNC(=O)[C@H](CC(C)C)NC(=O)[C@H](CCCCN)NC(=O)[C@@H]2CSSC[C@H](NC(=O)[C@H](CO)NC(=O)[C@H](Cc3c[nH]c4ccccc34)NC(=O)CN)C(=O)NCC(=O)N[C@@H](Cc3ccccc3)C(=O)N[C@@H](Cc3ccccc3)C(=O)NCC(=O)NCC(=O)N[C@@H](CC(N)=O)C(=O)N[C@@H](CC(=O)O)C(=O)N[C@@H](CCC(=O)O)C(=O)N3CCC[C@H]3C(=O)N[C@H]3CSSC[C@H](NC1=O)C(=O)N[C@@H](CCCCN)C(=O)N[C@H](C(=O)N[C@@H](Cc1ccc(O)cc1)C(=O)O)CSSC[C@H](NC(=O)[C@H](Cc1c[nH]cn1)NC(=O)[C@H](CCC(N)=O)NC(=O)[C@H](Cc1c[nH]cn1)NC3=O)C(=O)N[C@@H](CCCCN)C(=O)N[C@@H](CO)C(=O)N[C@@H]([C@@H](C)CC)C(=O)N[C@@H](CCCNC(=N)N)C(=O)NCC(=O)N[C@@H](Cc1ccc(O)cc1)C(=O)N[C@@H](CCCNC(=N)N)C(=O)NCC(=O)NCC(=O)N[C@@H](Cc1ccc(O)cc1)C(=O)N2 [HCN2016-04] (H-GWSCGFFGGNDEPCHQHCKSIRGYRGGYCKLGGICKCY-OH; disulfide 4-29, 14-35, 18-37 (inferred); N-terminus and C-terminus assumed) | 0.33 µg/mL (≈ 0.0789 µM) | 0.86 µg/mL (≈ 0.206 µM) | improved antimicrobial activity | 2 | 0.40 µg/mL (≈ 0.0956 µM) | improved antimicrobial activity |  |  | improved antimicrobial activity |
